Laboratory results: patent US20210183467A1, “SYSTEM AND METHOD FOR USING MICROBIOME TO DE-RISK DRUG DEVELOPMENT” (YALE UNIVERSITY, priority 2018, published 2021)

Key:
[1] = system: Bacteroides thetaiotaomicron; test: BRV conversion assay with gut isolates; assay type: in vitro ADME; settings: among ten bacterial species
Method: Frozen stocks of bacteria (Table 4) are plated on BHI blood agar and incubated at 37° C. under anaerobic conditions. Single colonies are inoculated into 4 mL pre-reduced GMM and incubated anaerobically at 37° C. for 24 h (Akkermansia muciniphila for 48 hours). BRV conversion assays are performed with the resulting dense cultures, as described above for bacterial communities.

BT4554 = test: B. thetaiotaomicron loss-of-function screen, bt4554 deletion and complementation; assay type: in vitro ADME, Bacteroides thetaiotaomicron
Description: Two independent strategies were developed to identify the microbiome-encoded DMEs responsible for these chemical transformations. For members of the Bacteroides (the most prominent genus in the human gut microbiome in the experiments), Proteobacteria, and other genetically tractable species, Insertion Sequencing (INSeq) is used to make mapped, arrayed transposon mutant libraries as described in Goodman 2009 and Goodman 2011. From these libraries, a representative set of mutants was identified that collectively include disruptions in most non-essential genes. Each mutant was incubated with the pool of drugs metabolized by the parent species. Genes required for drug metabolism by LC-MS were identified as above.
1,352 B. thetaiotaomicron mutants were selected from an arrayed library as described in Goodman 2009 that disrupt ˜70% of its non-essential genes. Each mutant was incubated with a pool of 30 drugs metabolized by this organism. Drug levels were measured over time as above. […] FIGS. 10A-C show two examples: one of these is brivudine, an antiviral whose primary metabolite (bromovinyluracil; BVU) is dangerously toxic for patients taking 5-fluorouracil, a principal therapy for colorectal cancer. With reference to FIGS. 10A-C, transposon mutants representing disruptions in 70% of B. thetaiotaomicron (Bt) non-essential genes were screened for metabolism of 30 drugs targeted by the parent strain.
The contribution of microbial drug metabolism to serum drug and metabolite exposure was directly quantified by specifically modulating this activity in otherwise identical mice. To this end, the capacity of ten individual bacterial species was first determined, representing five major phyla that dominate the mammalian gut microbiota, for their capacity to convert BRV to BVU as illustrated in FIG. 14A. […]
Frozen stocks are re-suspended in 4 mL pre-reduced GMM and incubated anaerobically at 37° C. for 14 h. […] Substrates and reaction product are extracted and quantified by LC-MS as described below. […]

O=c1[nH]c(=O)n([C@H]2C[C@H](O)[C@@H](CO)O2)cc1/C=C/Br [BRV, Brivudine]
capacity to convert BRV to BVU [1]: highest metabolic activity
role of bt4554 in BRV conversion to BVU (BT4554; targeted gene deletion and complementation at different expression levels): necessary and sufficient
conversion to BVU by mutant in BT4554 (BT4554; transposon mutant, recapitulated by nonpolar deletion): unable to convert
